Assay results published in patent US9758559B2, “Short peptides derived from VDAC1, compositions and methods of use thereof” (B.G. NEGEV TECHNOLOGIES AND APPLICATIONS LTD., AT …, priority 2013, dated 2017).
Where a SMILES comes first, the peptide text is derived from it. [ ]: non-standard residue; d: D form.

How the values were obtained:
CLL-derived lymphocytes = test: Cell death of CLL-derived lymphocytes (PBMCs of CLL patients), PI staining and FACS; type: cell-based, human; conditions: 90 min incubation, PI staining, FACS, read-out: IC50, induction of cell death, CLL
Protocol: PBMCs were isolated from venous blood of the CLL patients by Ficoll-Paque PLUS (GE Healthcare, Israel) density gradient centrifugation, as follows. Venous blood (10-20 ml) was drawn from CLL patients with satisfying diagnostic criteria for CLL or from normal adult donors. Blood was collected into heparin tubes and was diluted 1:1 with balance solution composed of two stock solutions, A (1% D-glucose, 50 mM CaCl2, 0.98 mM MgCl2, 5.4 mM KCl and 0.145 M Tris-HCl, pH 7.6) and B (0.14 M NaCl) in a 1:9 ratio. The resulting mix was carefully layered on Ficoll-Paque Plus (10 ml of diluted blood:15 ml Ficoll) in 50 ml conical tubes. The tubes were centrifuged at 400×g (with minimal acceleration and deceleration) and 18-20° C. for 40 min. […] Cells were counted by a Countess Automated Cell Counter (Invitrogen).
PBMCs (4×10^5 or 8×10^5 cells/sample) were incubated in 200 μl serum-free medium with the examined peptide for 90 min at room temperature and centrifuged (500×g, 5 min) Cell death was analyzed by PI staining and flow cytometer (Beckton-Dickinson) and BD Cell Quest Pro software. Apoptotic cell death was also analyzed by PI and annexin V-FITC staining (Zaid H et al. 2005. 12:751-760), and by acridine orange and ethidium bromide staining and confocal microscopy (Olympus 1×81). […]

[1] = molecular target: T1, Mitochondria-Bound Hexokinase 1 (HK-1) (Rattus norvegicus, UniProt P05708); test: Detachment of mitochondria-bound HK-1-GFP in HeLa cells (confocal microscopy); type: cell-based; conditions: HeLa cells expressing HK-1-GFP, 6 h
T1 construct: expressed in transfected cells; host or cells: HeLa cells
T1 sequence (P05708 1-918): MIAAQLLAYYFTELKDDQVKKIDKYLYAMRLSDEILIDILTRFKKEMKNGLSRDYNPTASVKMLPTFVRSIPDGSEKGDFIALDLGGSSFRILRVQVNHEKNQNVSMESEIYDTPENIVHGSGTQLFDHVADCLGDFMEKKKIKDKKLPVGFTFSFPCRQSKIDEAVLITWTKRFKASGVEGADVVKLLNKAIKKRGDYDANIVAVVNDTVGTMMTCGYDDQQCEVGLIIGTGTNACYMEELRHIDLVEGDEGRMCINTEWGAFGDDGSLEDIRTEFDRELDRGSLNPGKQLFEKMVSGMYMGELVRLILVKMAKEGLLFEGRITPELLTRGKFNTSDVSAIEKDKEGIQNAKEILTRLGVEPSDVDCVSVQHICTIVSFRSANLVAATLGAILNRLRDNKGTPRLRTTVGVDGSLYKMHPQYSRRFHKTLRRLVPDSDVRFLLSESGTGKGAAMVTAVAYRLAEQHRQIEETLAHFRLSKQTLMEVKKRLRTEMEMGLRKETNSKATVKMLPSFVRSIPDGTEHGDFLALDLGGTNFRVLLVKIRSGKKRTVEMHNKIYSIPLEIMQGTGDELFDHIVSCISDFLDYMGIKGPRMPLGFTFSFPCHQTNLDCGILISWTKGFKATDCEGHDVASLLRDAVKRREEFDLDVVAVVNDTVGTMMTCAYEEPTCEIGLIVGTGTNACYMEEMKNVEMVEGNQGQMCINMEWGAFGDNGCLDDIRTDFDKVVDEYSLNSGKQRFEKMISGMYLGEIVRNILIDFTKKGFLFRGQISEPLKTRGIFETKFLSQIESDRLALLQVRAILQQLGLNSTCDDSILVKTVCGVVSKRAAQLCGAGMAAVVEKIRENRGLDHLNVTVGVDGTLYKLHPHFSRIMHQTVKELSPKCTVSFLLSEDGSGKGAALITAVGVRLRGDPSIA
Protocol: To visualize HK detachment induced by the D-Δ(1-14) N-terminal-Antp peptide, HeLa cells (3×10^5) were grown on Poly-D-Lysine (PDL)-coated coverslips in a 60 mm dish and transfected with pEGFP-HK-I or with plasmid pEGFP. HK-I-GFP fusion protein, in which GFP was connected to the HK-I C-terminal (pEGFP-HK-I), was constructed using an EcoR1 restriction site to introduce GFP into the 3′ (at the stop codon) of HK1 in plasmid pcDNA3.1 by site-directed mutagenesis with overlapping PCR amplification, using the following primers: 5′-[…]-3; (forward, SEQ ID NO:24) and 5′-[…]-3; (reverse, SEQ ID NO:25).
After 48 h, cells were incubated for 6 h with a serum-free medium containing 0.4% DMSO or with the indicated concentration of D-Δ(1-14) N-Ter-Antp peptide. Cells were washed with PBS, fixed for 20 min with 4% paraformaldehyde prepared in PBS, rinsed for 30 min in PBS and cell imaging was carried out by confocal microscopy (Olympus 1×81).

[2] = test system: Human primary glioblastoma cells (U-87); test: Cell death of U-87 cells, PI staining and flow cytometry; type: cell-based; conditions: 6 h, serum-free medium, PI-positive cells; read-out: IC50, cell death, U87
Protocol: The efficacy of the peptide comprising amino acids […] of the N-terminal domain of VDAC1, synthesized with D-amino acids (all D-stereomeric peptide) conjugated to the Antp sequence also synthesized from D-amino acids as a CPP (D-Δ(1-14) N-Ter-Antp, SEQ ID NO:9) was further examined for its activity of inducing cell death with brain tumor derived cell lines. Human primary glioblastoma cells (U-87), human neuroblastoma cells (SH-SY5Y) and rat glioblastoma cells (C6) were incubated (4×10^5 cells) for 6 h in a serum-free-medium containing different concentrations of D-Δ1-14N-Ter-Antp (SEQ ID NO:9). The previously disclosed LP4 peptide conjugated to Tf (Tf-D-LP4 peptide, SEQ ID NO:20) was used as a reference of activity. At the end of the incubation time the cells were stained with PI and the level of cell death, reflected by the percentage of PI-positive cells, was determined by flow cytometry.

T-Rex-293 cells = type: cell-based
Text: Data represent mean values, n=3.
It was previously disclosed that peptide Antp-LP4 (SEQ ID NO:23) derived from another part of VDAC1, selectively induce cell death of cancerous cells co-expressing the cell surface markers CD19 and CD5 (U.S. Pat. No. 8,648,045) as well as other cancer cells as HeLa.

CC[C@@H](C)[C@@H](NC(=O)[C@@H](CCCCN)NC(=O)[C@H](NC(=O)[C@@H](CCC(N)=O)NC(=O)[C@@H](CCCNC(=N)N)NC(=O)[C@@H](CC(C)C)NC(=O)CNC(=O)[C@@H](Cc1ccccc1)NC(=O)CNC(=O)[C@@H](Cc1ccc(O)cc1)NC(=O)CNC(=O)[C@@H](CCCCN)NC(=O)[C@H](NC(=O)[C@@H](Cc1ccccc1)NC(=O)[C@H](NC(=O)[C@@H](CC(=O)O)NC(=O)[C@H](N)CCCNC(=N)N)C(C)C)[C@H](C)O)[C@H](C)CC)C(=O)N[C@H](Cc1c[nH]c2ccccc12)C(=O)N[C@H](Cc1ccccc1)C(=O)N[C@H](CCC(N)=O)C(=O)N[C@H](CC(N)=O)C(=O)N[C@H](CCCNC(=N)N)C(=O)N[C@H](CCCNC(=N)N)C(=O)N[C@H](CCSC)C(=O)N[C@H](CCCCN)C(=O)N[C@H](Cc1c[nH]c2ccccc12)C(=O)N[C@H](CCCCN)C(=O)N[C@H](CCCCN)C(=O)O [D-Δ(1-14) N-Ter-Antp, ALL D-RDVFTKGYGFGL RQIKIWFQNRRMKWKK] (H-[dR][dD][dV][dF][dT][dK]G[dY]G[dF]G[dL][dR][dQ][dI][dK][dI][dW][dF][dQ][dN][dR][dR][dM][dK][dW][dK][dK]-OH)
IC50 (CLL-derived lymphocytes): 1.3 ± 0.1 µM | HK-1-GFP detachment from the mitochondria [1]: diffusion of HK-1-GFP out into the cytosol is observed | IC50 [2]: 3.75 µM | induction of cell death, in words (T-Rex-293 cells; T-Rex-293 control cells): some induction of cell death | IC50 (T-Rex-293 cells; non-malignant cells TRex-293, read-out: IC50, cell death, non-malignant cells TRex-293): > 14.3 µM
